The record followed here is ChEMBL document CHEMBL2346515, “Discovery of 4-alkylamino-7-aryl-3-cyanoquinoline LRRK2 kinase inhibitors” (Bioorg Med Chem Lett, 2013).

One data set concerns MDCK. The experiment in a line: Permeability in MDCK cells expressing MDR1. The settings on record: dog. Format: ADME, cell-based, Canis lupus familiaris.
The test system of the next data set is Brain. The experiment in a line: Drug uptake in brain of MDR1 a/b(-/-) and P-gp competant wild-type FVB mouse at 1 mg/kg, iv after 5 mins. The class given is ADME, organism-based. The arrangement: dose 1 mg/kg, route intravenous. The settings on record: in vivo.
Data set [1] concerns the target Rho-associated protein kinase 2 (Homo sapiens) (UniProt O75116). The experiment in a line: Inhibition of ROCK2 (unknown origin) at 1 uM by single point assay.
For data set [2], the target named is RAF proto-oncogene serine/threonine-protein kinase (Homo sapiens) (UniProt P04049). Put plainly: Inhibition of RAF1 (unknown origin) at 1 uM by single point assay.
Sequence of RAF proto-oncogene serine/threonine-protein kinase (Homo sapiens) (P04049 whole entry): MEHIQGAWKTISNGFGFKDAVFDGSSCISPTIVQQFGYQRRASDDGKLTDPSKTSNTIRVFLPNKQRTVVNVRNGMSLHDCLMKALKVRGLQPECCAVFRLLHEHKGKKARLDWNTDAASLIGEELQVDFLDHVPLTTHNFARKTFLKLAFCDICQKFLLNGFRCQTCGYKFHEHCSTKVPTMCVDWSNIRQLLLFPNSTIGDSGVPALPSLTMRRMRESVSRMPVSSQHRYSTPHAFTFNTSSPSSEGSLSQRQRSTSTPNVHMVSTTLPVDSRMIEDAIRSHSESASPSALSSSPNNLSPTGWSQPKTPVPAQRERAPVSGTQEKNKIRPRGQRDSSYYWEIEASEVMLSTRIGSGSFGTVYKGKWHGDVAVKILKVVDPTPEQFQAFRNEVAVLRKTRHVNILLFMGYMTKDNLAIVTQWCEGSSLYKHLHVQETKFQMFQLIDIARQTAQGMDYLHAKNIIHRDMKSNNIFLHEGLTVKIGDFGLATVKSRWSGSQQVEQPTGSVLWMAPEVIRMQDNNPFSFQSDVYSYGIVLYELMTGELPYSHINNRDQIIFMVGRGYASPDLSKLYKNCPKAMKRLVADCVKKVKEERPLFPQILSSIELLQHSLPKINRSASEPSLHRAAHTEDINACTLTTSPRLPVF
Data set [3] deals with Protein-tyrosine kinase 2-beta (Homo sapiens) (UniProt Q14289). The experiment in a line: Inhibition of PTK2B (unknown origin) at 1 uM by single point assay.
Data set [4] concerns the target cAMP-dependent protein kinase catalytic subunit alpha (Homo sapiens) (UniProt P17612). The experiment in a line: Inhibition of PRKACA (unknown origin) at 1 uM by single point assay.
In data set [5] the target is Serine/threonine-protein kinase PLK1 (Homo sapiens) (UniProt P53350). The experiment in a line: Inhibition of PLK1 (unknown origin) at 1 uM by single point assay.
Sequence of Serine/threonine-protein kinase PLK1 (Homo sapiens) (P53350 whole entry): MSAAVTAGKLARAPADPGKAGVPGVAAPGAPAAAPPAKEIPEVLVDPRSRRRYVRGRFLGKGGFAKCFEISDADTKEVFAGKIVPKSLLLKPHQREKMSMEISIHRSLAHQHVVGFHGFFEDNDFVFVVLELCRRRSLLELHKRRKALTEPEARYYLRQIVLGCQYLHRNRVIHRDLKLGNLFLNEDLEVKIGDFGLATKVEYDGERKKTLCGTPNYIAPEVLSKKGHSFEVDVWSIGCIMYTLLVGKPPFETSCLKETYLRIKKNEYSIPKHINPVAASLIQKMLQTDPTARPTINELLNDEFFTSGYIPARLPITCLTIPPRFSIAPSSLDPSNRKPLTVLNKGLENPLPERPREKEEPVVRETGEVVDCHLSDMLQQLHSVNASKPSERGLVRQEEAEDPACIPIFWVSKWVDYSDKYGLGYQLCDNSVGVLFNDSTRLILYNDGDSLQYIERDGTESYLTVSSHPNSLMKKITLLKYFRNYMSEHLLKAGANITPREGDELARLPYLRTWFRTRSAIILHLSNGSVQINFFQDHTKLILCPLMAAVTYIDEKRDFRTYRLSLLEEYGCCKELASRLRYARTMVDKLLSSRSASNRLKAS
In data set [6] the target is Serine/threonine-protein kinase PLK2 (Homo sapiens) (UniProt Q9NYY3). The experiment in a line: Inhibition of PLK2 (unknown origin) at 1 uM by single point assay.
Data set [7] concerns the target Serine/threonine-protein kinase PAK 4 (Homo sapiens) (UniProt O96013). Put plainly: Inhibition of PAK4 (unknown origin) at 1 uM by single point assay.
Data set [8] has as its target Platelet-derived growth factor receptor alpha (Homo sapiens) (UniProt P16234). The experiment in a line: Inhibition of PDGFRalpha (unknown origin) at 1 uM by single point assay.
The target of data set [9] is T1, Mitogen-activated protein kinase kinase kinase 7 (Homo sapiens) (UniProt O43318).
T1 sequence (whole entry): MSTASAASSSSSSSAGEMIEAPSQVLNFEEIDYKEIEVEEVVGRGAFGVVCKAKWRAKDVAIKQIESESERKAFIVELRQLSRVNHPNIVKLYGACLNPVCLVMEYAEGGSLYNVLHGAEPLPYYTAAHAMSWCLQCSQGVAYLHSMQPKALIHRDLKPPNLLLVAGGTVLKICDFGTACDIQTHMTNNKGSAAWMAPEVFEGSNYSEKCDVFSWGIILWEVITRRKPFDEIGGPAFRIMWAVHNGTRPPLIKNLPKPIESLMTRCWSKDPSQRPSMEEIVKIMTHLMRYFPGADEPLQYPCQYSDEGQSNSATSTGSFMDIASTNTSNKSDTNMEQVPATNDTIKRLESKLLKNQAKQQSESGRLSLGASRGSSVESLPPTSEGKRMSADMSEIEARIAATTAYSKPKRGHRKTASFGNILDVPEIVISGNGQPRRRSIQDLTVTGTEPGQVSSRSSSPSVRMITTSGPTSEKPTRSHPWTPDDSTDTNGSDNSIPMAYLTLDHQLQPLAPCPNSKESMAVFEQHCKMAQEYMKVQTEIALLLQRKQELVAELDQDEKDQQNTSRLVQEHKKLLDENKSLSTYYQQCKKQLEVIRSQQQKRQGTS
The experiment in a line: Inhibition of MAP3K7 (unknown origin) at 1 uM by single point assay.

For data set [10], the target named is Insulin receptor (Homo sapiens) (UniProt P06213). The experiment in a line: Inhibition of INSR (unknown origin) at 1 uM by single point assay.
Data set [11] addresses Glycogen synthase kinase-3 beta (Homo sapiens) (UniProt P49841). Put plainly: Inhibition of GSK3beta (unknown origin) at 1 uM by single point assay.
Data set [12] has as its target Dual specificity tyrosine-phosphorylation-regulated kinase 1B (Homo sapiens) (UniProt Q9Y463). Put plainly: Inhibition of DYRK1B (unknown origin) at 1 uM by single point assay.
Data set [13] addresses Macrophage colony-stimulating factor 1 receptor (Homo sapiens) (UniProt P07333). The experiment in a line: Inhibition of CSF1R (unknown origin) at 1 uM by single point assay.
Data set [14] deals with T2, Serine/threonine-protein kinase Chk1 (Homo sapiens) (UniProt O14757).
T2 sequence (whole entry): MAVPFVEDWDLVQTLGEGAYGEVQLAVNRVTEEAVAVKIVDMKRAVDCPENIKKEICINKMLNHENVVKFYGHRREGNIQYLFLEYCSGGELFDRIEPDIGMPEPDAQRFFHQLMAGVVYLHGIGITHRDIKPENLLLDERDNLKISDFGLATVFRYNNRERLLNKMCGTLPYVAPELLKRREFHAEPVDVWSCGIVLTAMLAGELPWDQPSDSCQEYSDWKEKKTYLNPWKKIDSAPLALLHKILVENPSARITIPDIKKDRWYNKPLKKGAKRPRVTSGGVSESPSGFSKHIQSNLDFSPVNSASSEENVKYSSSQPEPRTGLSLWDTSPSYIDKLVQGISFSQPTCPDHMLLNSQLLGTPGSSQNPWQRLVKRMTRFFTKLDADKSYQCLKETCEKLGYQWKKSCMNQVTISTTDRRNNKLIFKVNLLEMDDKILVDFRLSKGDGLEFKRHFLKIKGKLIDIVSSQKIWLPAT
The experiment in a line: Inhibition of CHK1 (unknown origin) at 1 uM by single point assay.

The target of data set [15] is Cyclin-dependent kinase 5/CDK5 activator 1 (Homo sapiens) (UniProt Q00535+Q15078). The experiment in a line: Inhibition of CDK5/p25 (unknown origin) at 1 uM by single point assay. The class given is protein-complex assay.
Data set [16] addresses Cyclin-dependent kinase 2/cyclin A (Homo sapiens) (UniProt P24941+P20248+P78396). The experiment in a line: Inhibition of CDK2/cyclin A (unknown origin) at 1 uM by single point assay. Format: protein-complex assay.
Data set [17] deals with RAC-alpha serine/threonine-protein kinase (Homo sapiens) (UniProt P31749). The experiment in a line: Inhibition of AKT1 (unknown origin) at 1 uM by single point assay.
Sequence of RAC-alpha serine/threonine-protein kinase (Homo sapiens) (P31749 whole entry): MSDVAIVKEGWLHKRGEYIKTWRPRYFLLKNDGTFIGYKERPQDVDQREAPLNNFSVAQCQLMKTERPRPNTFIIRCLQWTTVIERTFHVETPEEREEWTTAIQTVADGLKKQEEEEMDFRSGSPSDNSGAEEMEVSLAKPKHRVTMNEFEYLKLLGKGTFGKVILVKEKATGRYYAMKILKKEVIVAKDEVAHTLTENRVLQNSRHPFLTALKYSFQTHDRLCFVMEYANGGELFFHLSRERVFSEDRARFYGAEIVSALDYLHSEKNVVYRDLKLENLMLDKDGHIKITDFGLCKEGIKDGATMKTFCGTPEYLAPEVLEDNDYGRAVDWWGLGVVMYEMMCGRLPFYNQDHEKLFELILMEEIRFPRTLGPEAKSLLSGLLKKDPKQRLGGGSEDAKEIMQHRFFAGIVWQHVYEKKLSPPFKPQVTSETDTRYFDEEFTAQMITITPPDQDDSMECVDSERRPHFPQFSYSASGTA
The target in data set [18] is Calcium/calmodulin-dependent protein kinase type II subunit alpha (Homo sapiens) (UniProt Q9UQM7). Put plainly: Inhibition of CAMK2alpha (unknown origin) at 1 uM by single point assay.
The target in data set [19] is T3, Leucine-rich repeat serine/threonine-protein kinase 2 (Homo sapiens, UniProt Q5S007, G2019S). The experiment in a line: Inhibition of LRRK2 G2019S mutant (unknown origin) Ser935 phosphorylation expressed in HEK293 cells by cell-based assay.
T3 sequence (Q5S007 whole entry G2019S, the tested form may be a part): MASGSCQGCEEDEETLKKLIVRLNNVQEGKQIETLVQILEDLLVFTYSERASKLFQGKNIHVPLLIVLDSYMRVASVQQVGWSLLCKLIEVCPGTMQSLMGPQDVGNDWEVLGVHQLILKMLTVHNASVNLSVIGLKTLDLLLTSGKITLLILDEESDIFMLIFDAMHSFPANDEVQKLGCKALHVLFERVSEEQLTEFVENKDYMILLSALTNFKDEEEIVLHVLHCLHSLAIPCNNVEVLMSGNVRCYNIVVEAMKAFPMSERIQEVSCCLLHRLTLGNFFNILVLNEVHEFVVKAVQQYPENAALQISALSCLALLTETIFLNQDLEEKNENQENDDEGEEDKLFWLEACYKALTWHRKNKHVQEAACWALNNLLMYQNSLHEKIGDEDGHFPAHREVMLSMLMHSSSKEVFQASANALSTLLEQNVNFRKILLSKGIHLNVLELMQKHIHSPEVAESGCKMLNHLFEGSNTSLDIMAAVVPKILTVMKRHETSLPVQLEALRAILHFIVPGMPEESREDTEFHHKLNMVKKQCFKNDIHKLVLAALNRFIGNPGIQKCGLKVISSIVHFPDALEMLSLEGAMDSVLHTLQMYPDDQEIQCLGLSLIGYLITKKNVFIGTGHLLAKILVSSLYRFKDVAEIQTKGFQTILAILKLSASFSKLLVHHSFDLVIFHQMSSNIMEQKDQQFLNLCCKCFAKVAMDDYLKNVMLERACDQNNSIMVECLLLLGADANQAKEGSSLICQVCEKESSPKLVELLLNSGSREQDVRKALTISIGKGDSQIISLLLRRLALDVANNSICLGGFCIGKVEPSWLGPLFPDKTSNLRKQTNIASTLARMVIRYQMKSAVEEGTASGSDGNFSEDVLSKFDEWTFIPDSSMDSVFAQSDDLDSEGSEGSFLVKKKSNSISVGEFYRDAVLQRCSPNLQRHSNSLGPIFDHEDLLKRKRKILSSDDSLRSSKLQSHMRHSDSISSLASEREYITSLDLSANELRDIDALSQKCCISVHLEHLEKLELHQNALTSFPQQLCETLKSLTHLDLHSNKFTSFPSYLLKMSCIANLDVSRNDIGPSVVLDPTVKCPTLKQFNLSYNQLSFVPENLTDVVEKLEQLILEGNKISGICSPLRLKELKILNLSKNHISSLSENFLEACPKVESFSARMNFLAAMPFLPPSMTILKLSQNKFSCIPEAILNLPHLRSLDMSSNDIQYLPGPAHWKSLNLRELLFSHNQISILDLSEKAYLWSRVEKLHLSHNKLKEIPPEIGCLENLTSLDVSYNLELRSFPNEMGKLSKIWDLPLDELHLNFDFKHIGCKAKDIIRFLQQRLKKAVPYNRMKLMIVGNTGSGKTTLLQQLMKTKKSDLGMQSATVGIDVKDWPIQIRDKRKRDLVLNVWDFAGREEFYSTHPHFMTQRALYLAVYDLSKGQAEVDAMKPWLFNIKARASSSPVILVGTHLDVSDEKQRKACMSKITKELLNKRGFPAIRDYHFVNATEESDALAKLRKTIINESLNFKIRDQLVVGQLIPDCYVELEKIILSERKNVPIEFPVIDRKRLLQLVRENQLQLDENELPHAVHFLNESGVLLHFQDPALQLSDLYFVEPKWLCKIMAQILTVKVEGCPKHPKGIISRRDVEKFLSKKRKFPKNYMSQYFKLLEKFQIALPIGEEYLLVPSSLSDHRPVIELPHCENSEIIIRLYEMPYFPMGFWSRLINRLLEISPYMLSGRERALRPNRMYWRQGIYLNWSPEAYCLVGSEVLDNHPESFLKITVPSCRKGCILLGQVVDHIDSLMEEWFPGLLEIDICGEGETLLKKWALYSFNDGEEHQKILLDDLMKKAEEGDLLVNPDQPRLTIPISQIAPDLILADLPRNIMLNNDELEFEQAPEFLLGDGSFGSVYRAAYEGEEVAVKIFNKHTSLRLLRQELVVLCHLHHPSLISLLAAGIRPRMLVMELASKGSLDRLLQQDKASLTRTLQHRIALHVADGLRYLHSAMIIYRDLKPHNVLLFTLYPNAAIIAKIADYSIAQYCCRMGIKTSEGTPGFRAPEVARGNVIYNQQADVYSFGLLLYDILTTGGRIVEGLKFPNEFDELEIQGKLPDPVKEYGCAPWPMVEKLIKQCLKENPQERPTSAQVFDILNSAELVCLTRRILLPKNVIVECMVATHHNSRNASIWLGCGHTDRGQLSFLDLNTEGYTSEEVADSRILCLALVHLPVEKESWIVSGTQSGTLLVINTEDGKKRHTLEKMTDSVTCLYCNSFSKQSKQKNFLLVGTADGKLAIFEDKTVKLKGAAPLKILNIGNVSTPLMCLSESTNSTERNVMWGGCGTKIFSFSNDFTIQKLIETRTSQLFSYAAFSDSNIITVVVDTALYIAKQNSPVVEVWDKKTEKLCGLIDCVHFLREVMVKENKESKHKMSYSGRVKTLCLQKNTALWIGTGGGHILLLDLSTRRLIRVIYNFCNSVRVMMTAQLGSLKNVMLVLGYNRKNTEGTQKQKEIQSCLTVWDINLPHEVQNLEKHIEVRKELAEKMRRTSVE
Data set [20] concerns the target T3, Leucine-rich repeat serine/threonine-protein kinase 2. The experiment in a line: Inhibition of GST-tagged LRRK2 G2019S mutant (970-2527 amino acids) (unknown origin) assessed as inhibition of LRRKtide phosphorylation by HTRF assay.
Data set [21] concerns the target Leucine-rich repeat serine/threonine-protein kinase 2 (Homo sapiens, UniProt Q5S007). Put plainly: Inhibition of wild type GST-tagged LRRK2 (970-2527 amino acids)(unknown origin) assessed as inhibition of LRRKtide phosphorylation by HTRF assay.

Sequence of Leucine-rich repeat serine/threonine-protein kinase 2 (Homo sapiens, UniProt Q5S007) (Q5S007 whole entry, the tested form may be a part): as the sequence (Q5S007 whole entry G2019S, the tested form may be a part) above, with S2019G counted along it
Sequence of Glycogen synthase kinase-3 beta (Homo sapiens) (P49841 whole entry, looked up): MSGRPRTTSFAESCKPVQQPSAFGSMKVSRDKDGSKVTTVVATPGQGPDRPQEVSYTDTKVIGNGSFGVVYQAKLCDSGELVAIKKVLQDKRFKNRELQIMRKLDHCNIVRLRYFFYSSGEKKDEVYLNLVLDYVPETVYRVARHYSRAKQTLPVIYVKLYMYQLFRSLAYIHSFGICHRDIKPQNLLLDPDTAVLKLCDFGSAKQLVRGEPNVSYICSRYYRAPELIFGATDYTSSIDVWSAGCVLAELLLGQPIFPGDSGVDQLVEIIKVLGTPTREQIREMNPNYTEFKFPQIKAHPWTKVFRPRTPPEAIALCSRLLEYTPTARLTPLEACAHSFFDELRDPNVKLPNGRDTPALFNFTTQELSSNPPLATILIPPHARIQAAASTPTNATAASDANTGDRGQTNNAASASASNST

For the compound `CC(C)Nc1c(C#N)cnc2cc(-c3ccc(S(C)(=O)=O)cc3)ccc12`, the permeability entry in the data set on MDCK was “impermeable”. Moreover, the Drug uptake result in the data set on Brain is on record as “Active”. In addition, the inhibition in data set [1] is 12%; in [2], 3%; in data set [3], 33%; in data set [4] it was 9%; in data set [5], 20%; in data set [6] it was 73%. Moreover, the inhibition came out at 15% in data set [7]; 33% in data set [8]; 7% in data set [9]; 6% in [10]; 28% in data set [11]; 49% in [12]. The inhibition in data set [13] amounted to 60%; in data set [14] it was 36%; in data set [15] it was 16%; in data set [16] it was 12%; in data set [17], 10%; in data set [18] it was 25%. Moreover, a half-maximal response in data set [19] (EC50) required 435 nM. In addition, the IC50 worked out at 28 nM in [20] and 31 nM in [21].
On to `C[C@@H](Nc1c(C#N)cnc2cc(-c3ccc(-n4ccoc4=O)cc3)ccc12)C1CC1`, for which the permeability entry in the data set with MDCK was “impermeable”. For the same compound, the Drug uptake result in the data set with Brain is given as “Active”. This compound also returned an EC50 in data set [19] of 731 nM. In addition, the IC50 in data set [20] is 27 nM; in data set [21], 48 nM.
`CC(C)Nc1c(C#N)cnc2cc(-c3cnn(C)c3)ccc12`: the permeability entry with MDCK is listed as “impermeable”. For the same compound, the Drug uptake result in the data set on Brain is given as “Active”. Moreover, the inhibition in [1] came out at 14%; in data set [2], 12%; in data set [3], 12%; in data set [4], 9%; in data set [5], 24%; in data set [6] it was 89%. Besides, the inhibition in data set [7] was 41%; in data set [8], 30%; in data set [9], 51%; in data set [10] it was 1%; in data set [11], 6%; in [12], 49%. Also, the inhibition in [13] was determined as 67%; in data set [14], 64%; in data set [15], 12%; in [16], 5%; in data set [17] it was 0%; in data set [18], 27%. This compound also registered an EC50 in [19] of 140 nM. Besides, the IC50 stood at 5 nM in data set [20] and 7 nM in [21].

Usually inhibition stands for the percentage by which the read-out fell short of the control. For orientation: EC50 means the concentration giving half of the maximal effect. Low readings indicate greater potency, high ones weaker potency. As a reminder, the IC50 is the concentration that inhibits the measured activity by half.
